From patent US12685717B2, “Suppression of inflammasome activation” (Washington University, priority 2020, dated 2026)

What was measured:
Type in all cases: cell-based
[1] = tested on: inflammasome mediated IL-1β secretion from primary macrophages; test: Macrophage inflammasome activation (IL-1β) in response to LPS + MSU crystals; settings: LPS priming followed by MSU, FIG. 5
Description: See FIG. 4 for the structures of the compounds. Mechanical stimulation by MSU crystals function as a physiological activation mechanism for the putatively mechanosensitive SWELL1-LRRC8 channel complex as macrophages engulf MSU and undergo large volume changes. This is analogous to cholesterol crystals that are thought to contribute to NASH by driving simple hepatic steatosis toward fibrotic steatosis. […] First-pass effect from oral delivery, combined with the fact that SN-40X are lipophilic carboxylic acids may conspire to increase hepatic drug concentrations sufficiently to exert anti-inflammatory activity on resident hepatic macrophages and Kupffer cells that contribute to steatohepatitis.

RAW 264.7 cells = test: LPS-induced inflammatory cytokine mRNA expression in RAW 264.7 cells (qRT-PCR); settings: 10 μM, 2 hours preincubation, LPS 50 ng/ml for 30 minutes, FIG. 6
Experimental: RAW 264.7 cells were incubated with either vehicle (DMSO) or SN-401 (10 μM) and SN-406 (10 μM) for 2 hours and subsequently, cells were activated with either LPS (50 ng/ml) alone or along with SN-401 (10 μM) and SN-406 (10 μM) for 30 minutes. After the activation cells were harvested for qRT-PCR analysis (see FIG. 6, panels A-C). Relative mRNA expression for selected inflammatory markers, IL1β, TNF-α and CXCL10 from 3 independent experiments. Statistical significance between the indicated groups were calculated by using a two-tailed Student's t-test. Error bars represent mean ±s.e.m. *, P<0.05, **, P<0.01, ***, P<0.001, ****, P<0.0001.

SWELL1 current = test: Hypotonically-induced currents in wild-type primary macrophages; settings: wild-type (WT) primary macrophages, 210 mOsm; FIG. 7
[2] = tested on: SWELL1 KO primary macrophages; test: Hypotonically-induced currents in SWELL1 KO primary macrophages; settings: 210 mOsm, FIG. 8
Experimental: See FIG. 7 (Panel A, Current over time plot; Panel B, Current voltage plot from (A) above). Current over time of hypotonically-induced currents in SWELL1 KO primary macrophages (210 mOsm) was measured along with DCPIB response. […] See FIG. 8 (Panel A, Current over time plot; Panel B, Current voltage plot from (A) above).

SMILES | suppression of inflammasome mediated IL-1β secretion [1] | expression of LPS-induced inflammatory cytokine production (relative mRNA IL1β, TNF-α, CXCL10) (RAW 264.7 cells) | inhibition of hypotonically-induced current (SWELL1 current) | response of hypotonically-induced current [2]
CCCCC1(C2CCCC2)Cc2cc(OCCCC(=O)O)c(Cl)c(Cl)c2C1=O (stereo not drawn) [SN-401] | fully suppressed | Inhibit | – | –
CCCCC1(C2CCCC2)Cc2cc(OCCCCCC(=O)O)c(Cl)c(Cl)c2C1=O (stereo not drawn) [SN-406] | fully suppressed | Inhibit | – | –
CCCCC1(C2CCCC2)Cc2cc(OCCCC(=O)O)c(Cl)c(Cl)c2C1=O (stereo not drawn) [DCPIB, 4-[(2-butyl-6,7-dichloro-2-cyclopentyl-1-oxo-2,3-dihydro-1H-inden-5-yl)oxy]butanoic acid] | – | – | inhibition | No response
